Assay results reported in patent publication US20240425483A1, “INDOLINES AS PROTAC COMPOUNDS” (NeoPhore Limited, priority 2021, published 2024).

biological target: T1, PMS2 protein (Homo sapiens, UniProt P54278); assay: PROTAC screening in SW620 human colorectal carcinoma cells, PMS2 protein level by JESS Western blot; assay type: cell-based; settings: SW-620, 24 h, 1 uM compound, normalised to actin and DMSO control, Table A1
T1 construct: host or cells: SW620 human colorectal carcinoma cells
T1 sequence (P54278 1-862): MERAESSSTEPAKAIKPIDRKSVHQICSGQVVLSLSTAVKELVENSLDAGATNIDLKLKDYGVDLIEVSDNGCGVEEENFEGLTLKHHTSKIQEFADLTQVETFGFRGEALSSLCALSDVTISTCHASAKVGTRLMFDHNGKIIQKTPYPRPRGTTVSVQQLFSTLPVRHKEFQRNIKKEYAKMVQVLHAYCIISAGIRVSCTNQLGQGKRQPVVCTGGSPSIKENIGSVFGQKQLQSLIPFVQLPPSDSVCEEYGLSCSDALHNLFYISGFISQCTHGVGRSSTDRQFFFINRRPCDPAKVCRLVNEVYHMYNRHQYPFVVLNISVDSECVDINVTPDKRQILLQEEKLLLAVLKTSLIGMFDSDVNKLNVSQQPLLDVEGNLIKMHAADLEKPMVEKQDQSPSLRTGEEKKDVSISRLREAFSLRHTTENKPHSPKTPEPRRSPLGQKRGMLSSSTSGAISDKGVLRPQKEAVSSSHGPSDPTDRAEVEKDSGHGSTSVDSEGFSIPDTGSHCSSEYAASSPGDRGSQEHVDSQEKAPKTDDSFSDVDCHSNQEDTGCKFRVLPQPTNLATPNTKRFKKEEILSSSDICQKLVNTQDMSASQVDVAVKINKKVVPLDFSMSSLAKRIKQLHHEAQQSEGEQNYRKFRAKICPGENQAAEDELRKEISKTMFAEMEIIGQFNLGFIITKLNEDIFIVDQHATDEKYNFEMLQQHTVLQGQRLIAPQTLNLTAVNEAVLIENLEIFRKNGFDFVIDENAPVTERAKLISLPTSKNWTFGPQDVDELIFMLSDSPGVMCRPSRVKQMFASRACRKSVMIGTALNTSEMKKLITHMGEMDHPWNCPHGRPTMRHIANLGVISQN
Method: PROTAC Screening Protocol Using SW620 Human Colorectal Carcinoma Cells
SVW620 cells (ATCC/[…]) were cultured in T75 Falcon flasks in culture media (F12/DMEM 1:1 media, 10% FCS, +L-G supplement). Cells were split twice a week, for a maximum of 6 weeks. Media was aspirated, and cells washed with 10 mL of sterile PBS. PBS was aspirated, and cells incubated with 1.5 mL TrypLE for up to 5 minutes at 37° C., 5% CO2. Once cells had detached, TrypLE was neutralised with 10 mL culture media and cells mixed 1:1 with Trypan blue and quantified using a Luna cell counter. Cells were then seeded into fresh T75 flasks with 1×10^6 cells and 10 mL culture media.
SW620 cells, cultured and counted as above, were used to seed 12 well plates at a density of 1.5×10^5 cells/well and incubated overnight at 37° C., 5% CO2. Test compounds were solubilized in DMSO to a stock concentration of 10 mM and serially diluted in DMSO and media to their test concentration; the final concentration of DMSO was 0.1% (v/v). Each concentration was tested in triplicate. SW620 cells were incubated with test compound for 24 hours at 37° C., 5% CO2. Media was aspirated from each well, and each well washed with 1 mL ice cold PBS. PBS was then aspirated, and 50 μL of cold lysis buffer (RIPA buffer supplemented with 1× protease inhibitors, Benzonase, MgCl) was added to each well; plates were then incubated on ice for 5 minutes. Cells were scraped using a pipette tip before being transferred to a fresh Eppendorf. Samples were spun at maximum speed in a benchtop centrifuge for 5 minutes at 4° C. and supernatant was then transferred to fresh tubes. Samples were stored at −80° C. until analysis.
Bicinchonininic acid (BCA) protein assay standards (2-0.125 mg/mL BSA) were prepared in advance. 6 μL of each standard was pipetted in duplicate into rows A and B of a 384-well assay plate. Test samples were diluted in lysis buffer (1:3-1:10) in a 384-well plate in duplicate. BCA Reagents were combined 50:1, Part A:Part B and 50 μL added to each well. Plates were incubated for 30 min at 37° C. in a plate incubator and read using a BCA protein 384 protocol on an EnSpire plate reader. Protein concentrations were calculated from a standard curve.
JESS Western Blot Protocol
Protein lysates were prepared using Protein Simple EZ standard pack reagents: 40 μL distilled H2O was added to a DTT tube (clear) and treated with 20 μL 10× sample buffer and 20 μL DTT to 5×MM tube (pink). 20 μL dH2O was added to biotinylated ladder tube (green).
Test samples were prepared by dilution to the required concentration (0.1 mg/mL) in 0.1× sample buffer. 1.25 μL 5× fluorescent master mix from the EZ standard pack was added to 5 μL sample for each lane to be loaded (e.g. 2.5 μL+10 μL if loading same sample into 2 wells). Samples were vortexed, briefly spun down and heated at 95° C. for 5 min in a PCR machine then vortexed again and briefly spun down before loading onto JESS cassettes (catalogue No: SM-W004) according to manufacturer's instructions (https://www.proteinsimple.com/technical_library.html?product=simplewestern&def_list=list). Protein expression was determined by the peak area of the target protein signal. Peak area of the target protein was normalised to peak area of the loading control (actin) and to DMSO control.

Row | SMILES | remaining activity at 1 µM [%]
1 | Cc1c(O)cc(O)c(C(=O)N2Cc3ccc(CN4CCN(CCOCCOCCOCCNc5cccc6c5CN(C5CCC(=O)NC5=O)C6=O)CC4)cc3C2)c1OCC1CCCCC1 (stereo not shown) [Example 17, 3-(4-((2-(2-(2-(2-(4-((2-(2-(Cyclohexylmethoxy)-4,6-dihydroxy-3-methylbenzoyl)isoindolin-5-yl)methyl)piperazin-1-yl)ethoxy)ethoxy)ethoxy)ethyl)amino)-1-oxoisoindolin-2-yl)piperidine-2,6-dione] | 10 to 25
2 | Cc1c(O)cc(O)c(C(=O)N2Cc3ccc(CN4CCN(CCOCCOCCOCCOc5cccc6c5CN(C5CCC(=O)NC5=O)C6=O)CC4)cc3C2)c1OCc1ccccc1 (stereo not shown) [Example 14, 3-(4-(2-(2-(2-(2-(4-((2-(2-(Benzyloxy)-4,6-dihydroxy-3-methylbenzoyl)isoindolin-5-yl)methyl)piperazin-1-yl)ethoxy)ethoxy)ethoxy)ethoxy)-1-oxoisoindolin-2-yl)piperidine-2,6-dione] | 10 to 25
3 | Cc1c(O)cc(O)c(C(=O)N2Cc3ccc(CN4CCN(CCOCCOCCNc5cccc6c5C(=O)N(C5CCC(=O)NC5=O)C6=O)CC4)cc3C2)c1OCc1ccccc1 (stereo not shown) [Example 2, 4-((2-(2-(2-(4-((2-(2-(Benzyloxy)-4,6-dihydroxy-3-methylbenzoyl)isoindolin-5-yl)methyl)piperazin-1-yl)ethoxy)ethoxy)ethyl)amino)-2-(2,6-dioxopiperidin-3-yl)isoindoline-1,3-dione] | 25 to 50
4 | Cc1ncsc1-c1ccc(CNC(=O)[C@@H]2C[C@@H](O)CN2C(=O)[C@@H](NC(=O)CCCCCCCCC(=O)N2CCN(Cc3ccc4c(c3)CN(C(=O)c3c(O)cc(O)c(C)c3OCC3CCCCC3)C4)CC2)C(C)(C)C)cc1 [Example 29, (2S,4R)-1-[(2S)-2-[[10-[4-[[2-[2-(Cyclohexylmethoxy)-4,6-dihydroxy-3-methyl-benzoyl]isoindolin-5-yl]methyl]piperazin-1-yl]-10-oxo-decanoyl]amino]-3,3-dimethyl-butanoyl]-4-hydroxy-N-[[4-(4-methylthiazol-5-yl)phenyl]methyl]pyrrolidine-2-carboxamide] | < 10
5 | Cc1c(O)cc(O)c(C(=O)N2Cc3ccc(CN4CCN(CCOCCOCCOCCNc5ccc6c(c5)CN(C5CCC(=O)NC5=O)C6=O)CC4)cc3C2)c1OCc1ccccc1 (stereo not shown) [Example 16, 3-(5-((2-(2-(2-(2-(4-((2-(2-(Benzyloxy)-4,6-dihydroxy-3-methylbenzoyl)isoindolin-5-yl)methyl)piperazin-1-yl)ethoxy)ethoxy)ethoxy)ethyl)amino)-1-oxoisoindolin-2-yl)piperidine-2,6-dione] | 25 to 50
6 | Cc1ncsc1-c1ccc(CNC(=O)[C@@H]2C[C@@H](O)CN2C(=O)[C@@H](NC(=O)CCCCCCC(=O)N2CCN(Cc3ccc4c(c3)CN(C(=O)c3c(O)cc(O)c(C)c3OCc3ccccc3)C4)CC2)C(C)(C)C)cc1 [Example 25, (2S,4R)-1-[(2S)-2-[[8-[4-[[2-(2-Benzyloxy-4,6-dihydroxy-3-methyl-benzoyl)isoindolin-5-yl]methyl]piperazin-1-yl]-8-oxo-octanoyl]amino]-3,3-dimethyl-butanoyl]-4-hydroxy-N-[[4-(4-methylthiazol-5-yl)phenyl]methyl]pyrrolidine-2-carboxamide] | < 10
7 | Cc1c(O)cc(O)c(C(=O)N2Cc3ccc(CN4CCN(CCOCCOCCOCCNc5cccc6c5C(=O)N(C5CCC(=O)NC5=O)C6=O)CC4)cc3C2)c1OCC1CCCCC1 (stereo not shown) [Example 5, 4-[2-[2-[2-[2-[4-[[2-[2-(Cyclohexylmethoxy)-4,6-dihydroxy-3-methyl-benzoyl]isoindolin-5-yl]methyl]piperazin-1-yl]ethoxy]ethoxy]ethoxy]ethylamino]-2-(2,6-dioxo-3-piperidyl)isoindoline-1,3-dione] | 10 to 25
8 | Cc1c(O)cc(O)c(C(=O)N2Cc3ccc(CN4CCN(CCOCCOCCOc5cccc6c5C(=O)N(C5CCC(=O)NC5=O)C6=O)CC4)cc3C2)c1OCc1ccccc1 (stereo not shown) [Example 10, 4-(2-(2-(2-(4-((2-(2-(Benzyloxy)-4,6-dihydroxy-3-methylbenzoyl)isoindolin-5-yl)methyl)piperazin-1-yl)ethoxy)ethoxy)ethoxy)-2-(2,6-dioxopiperidin-3-yl)isoindoline-1,3-dione] | 25 to 50
9 | Cc1ncsc1-c1ccc(CNC(=O)[C@@H]2C[C@@H](O)CN2C(=O)[C@@H](NC(=O)CCCCCCC(=O)N2CCN(Cc3ccc4c(c3)CN(C(=O)c3c(O)cc(O)c(C)c3OCC3CCCCC3)C4)CC2)C(C)(C)C)cc1 [Example 27, (2S,4R)-1-[(2S)-2-[[8-[4-[[2-[2-(Cyclohexylmethoxy)-4,6-dihydroxy-3-methyl-benzoyl]isoindolin-5-yl]methyl]piperazin-1-yl]-8-oxo-octanoyl]amino]-3,3-dimethyl-butanoyl]-4-hydroxy-N-[[4-(4-methylthiazol-5-yl)phenyl]methyl]pyrrolidine-2-carboxamide] | < 10
10 | Cc1c(O)cc(O)c(C(=O)N2Cc3ccc(CN4CCN(CCOCCOCCOCCOCCOCCNc5cccc6c5C(=O)N(C5CCC(=O)NC5=O)C6=O)CC4)cc3C2)c1OCc1ccccc1 (stereo not shown) [Example 4, 4-((17-(4-((2-(2-(Benzyloxy)-4,6-dihydroxy-3-methylbenzoyl)isoindolin-5-yl)methyl)piperazin-1-yl)-3,6,9,12,15-pentaoxaheptadecyl)amino)-2-(2,6-dioxopiperidin-3-yl)isoindoline-1,3-dione] | < 10
11 | Cc1c(O)cc(O)c(C(=O)N2Cc3ccc(CN4CCN(CCOCCOCCOCCNc5ccc6c(c5)C(=O)N(C5CCC(=O)NC5=O)C6=O)CC4)cc3C2)c1OCc1ccccc1 (stereo not shown) [Example 13, 5-((2-(2-(2-(2-(4-((2-(2-(Benzyloxy)-4,6-dihydroxy-3-methylbenzoyl)isoindolin-5-yl)methyl)piperazin-1-yl)ethoxy)ethoxy)ethoxy)ethyl)amino)-2-(2,6-dioxopiperidin-3-yl)isoindoline-1,3-dione] | 10 to 25
12 | Cc1ncsc1-c1ccc(CNC(=O)[C@@H]2C[C@@H](O)CN2C(=O)[C@@H](NC(=O)CCCCCCCCCC(=O)N2CCN(Cc3ccc4c(c3)CN(C(=O)c3c(O)cc(O)c(C)c3OCc3ccccc3)C4)CC2)C(C)(C)C)cc1 [Example 24, (2S,4R)-1-((S)-2-(11-(4-((2-(2-(Benzyloxy)-4,6-dihydroxy-3-methylbenzoyl)isoindolin-5-yl)methyl)piperazin-1-yl)-11-oxoundecanamino)-3,3-dimethylbutanoyl)-4-hydroxy-N-(4-(4-methylthiazol-5-yl)benzyl) pyrrolidine-2-carboxamide] | < 10

same assay, conditions: SW-620, 24 h, 1 uM compound, upon further testing, Table A2

Row | SMILES | remaining activity at 1 µM [%]
13 | Cc1c(O)cc(O)c(C(=O)N2Cc3ccc(CN4CCN(CCOCCOCCNc5cccc6c5C(=O)N(C5CCC(=O)NC5=O)C6=O)CC4)cc3C2)c1OCc1ccccc1 (stereo not shown) [Example 2, 4-((2-(2-(2-(4-((2-(2-(Benzyloxy)-4,6-dihydroxy-3-methylbenzoyl)isoindolin-5-yl)methyl)piperazin-1-yl)ethoxy)ethoxy)ethyl)amino)-2-(2,6-dioxopiperidin-3-yl)isoindoline-1,3-dione] | 10 to 25
